Measurements: patent US11542233B2, “Compounds, compositions and methods of use” (Aquinnah Pharmaceuticals, Inc., priority 2016, dated 2023)
pIC50: −log10 of the molar value.

These compounds were tested on TDP-43 aggregation in PC12 cells stably expressing GFP-tagged mutant TDP-43 (TDP-43^Q33IK::eGFP) (assay: In vitro efficacy assay: inhibition of TDP-43 inclusions, concentration-response, fluorescence microscopy). Details: PC12 cells, 1 hour pre-treatment, 15 μM sodium arsenite for 23 hours, 10-point dose response curve.
Assay type: cell-based
Outline: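 PC12 cells stably expressing TDP-43^Q33IK::eGFP pre-treated 1 h with compound, then stressed with 15 μM sodium arsenite for 23 h. Fluorescence microscopy gave the fraction of GFP-positive cells bearing aggregates; IC50 from concentration-response, reported in bins: A <100 nM, B 100–500 nM, C 500 nM–2 μM, D >2 μM.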

For `CCN(C(=O)c1cc2ccccc2[nH]1)[C@H]1CCC[C@@H](NCc2cccc(F)c2)C1` [Compound 106, N-ethyl-N-((1S,3R)-3-((3-fluorobenzyl)amino)cyclohexyl)-1H-indole-2-carboxamide], the pIC50 was > 7.00.

Same assay, conditions: Rattus norvegicus, PC-12, PC12 cells, 1 hour pre-treatment, 15 μM sodium arsenite for 23 hours, 10-point dose response curve

`CCN(C(=O)c1nc2cc(C(F)(F)F)ccc2[nH]1)[C@H]1CCC[C@@H](NCc2ccccc2)C1` [Compound 545] and `CCN(C(=O)c1nc2cc(OC(F)(F)F)ccc2[nH]1)[C@H]1CCC[C@@H](NCc2ccccc2)C1` [Compound 539, N-((1S,3R)-3-(benzylamino)cyclohexyl)-N-ethyl-5-(trifluoromethoxy)-1H-benzo[d]imidazole-2-carboxamide] cannot be ordered by pIC50: > 7.00 for the first, > 7.00 for the second.

Compared with `CCN(C(=O)c1cc2ccccc2[nH]1)C1COC[C@@H](N[C@H]2CCc3ccccc32)C1` (stereo partly drawn) [Compound 508], `CCN(C(=O)c1cc2ccccc2[nH]1)[C@@H]1CCC[C@@H](N[C@H]2CCc3ccccc32)C1` [Compound 113] is higher in pIC50: < 5.70 for the first, 5.70 to 6.30 for the second.

First: CCN(C(=O)c1cc2ncccc2[nH]1)[C@H]1CCC[C@@H](NCc2nnc(C)o2)C1 [Compound 468, N-ethyl-N-((1S,3R)-3-(((5-methyl-1,3,4-oxadiazol-2-yl)methyl)amino)cyclohexyl)-1H-pyrrolo[3,2-b]pyridine-2-carboxamide]
Second: CCN(C(=O)c1cc2ncccc2[nH]1)[C@H]1CCC[C@@H](NCc2cc(C)no2)C1 [Compound 437]
The pIC50 of the first is lower: 5.70 to 6.30 for the first, > 7.00 for the second.

`CCN(C(=O)c1cc2ccccc2[nH]1)[C@H]1CCC[C@@H](NCc2cc(C3CC3)on2)C1` [Compound 460] and `CCN(C(=O)c1cc2ccccc2[nH]1)[C@H]1CCC[C@@H](NCc2cc(C)on2)C1` [Compound 462] cannot be ordered by pIC50: > 7.00 for the first, > 7.00 for the second.

First: CCN(C(=O)c1nc2ccccc2[nH]1)[C@H]1CCC[C@@H](NCc2ccccc2)C1 [Compound 400, N-((1S,3R)-3-(benzylamino)cyclohexyl)-N-ethyl-1H-benzo[d]imidazole-2-carboxamide]
Second: CCN(C(=O)c1cc2ccccc2[nH]1)[C@@H]1CCC[C@@H](NCc2ccccc2)C1 [Compound 104]
The pIC50 of the first is higher: > 7.00 for the first, 5.70 to 6.30 for the second.

`CCN(C(=O)c1nc2ccccc2[nH]1)[C@H]1CCC[C@@H](NCc2cc(C3CC3)on2)C1` [Compound 515, N-((1S,3R)-3-(((5-cyclopropylisoxazol-3-yl)methyl)amino)cyclohexyl)-N-ethyl-1H-benzo[d]imidazole-2-carboxamide] and `CCN(C(=O)c1nc2cc(C#N)ccc2[nH]1)[C@H]1CCC[C@@H](NCc2cc(C3CC3)on2)C1` [Compound 537] cannot be ordered by pIC50: > 7.00 for the first, > 7.00 for the second.

First: CCN(C(=O)c1cc2ccccc2[nH]1)[C@@H]1C[C@H](NCc2ccccc2)CS(=O)(=O)C1 [Compound 313, N-((3R,5S)-5-(benzylamino)-1,1-dioxidotetrahydro-2H-thiopyran-3-yl)-N-ethyl-1H-indole-2-carboxamide]
Second: CCN(C(=O)c1cc2ccccc2[nH]1)[C@H]1CCC[C@H](NCc2ccccc2)C1 [Compound 102]
The pIC50 of the first is lower: < 5.70 for the first, 5.70 to 6.30 for the second.

`O=C(c1cc2ccccc2[nH]1)N(CC(F)(F)F)[C@H]1CCC[C@@H](NCc2ccc(F)cc2)C1` [Compound 171] and `O=C(c1cc2ccccc2[nH]1)N(CC(F)(F)F)[C@H]1CCC[C@@H](NCc2ccccc2)C1` [Compound 179] cannot be ordered by pIC50: > 7.00 for the first, > 7.00 for the second.

Compared with `CCN(C(=O)c1nc2ccccc2[nH]1)[C@H]1CCC[C@@H](NCc2ccc3nccn3c2)C1` [Compound 474], `CCN(C(=O)c1nc2ccccc2[nH]1)[C@H]1CCC[C@@H](NCc2ccc3cccn3c2)C1` [Compound 514, N-ethyl-N-((1S,3R)-3-((indolizin-6-ylmethyl)amino)cyclohexyl)-1H-benzo[d]imidazole-2-carboxamide] is higher in pIC50: 6.30 to 7.00 for the first, > 7.00 for the second. The second is the more potent here.

`CCN(C(=O)c1cc2ccccc2[nH]1)[C@H]1CCC[C@@H](NCc2ccc(O)cc2)C1` [Compound 428] and `CCN(C(=O)c1cc2ccccc2[nH]1)[C@H]1CCC[C@@H](NCc2ccc(OC)cc2)C1` [Compound 128] cannot be ordered by pIC50: > 7.00 for the first, > 7.00 for the second.

`CCN(C(=O)c1cc2ncccc2[nH]1)[C@H]1CCC[C@@H](NCc2ccc(F)cc2)C1` [Compound 152] and `CCN(C(=O)c1cc2ncccc2[nH]1)[C@H]1CCC[C@@H](NCc2ccc(N=[N+]=[N-])cc2)C1` [Compound 407] cannot be ordered by pIC50: > 7.00 for the first, > 7.00 for the second.

`CCN(C(=O)c1nc2ccccc2[nH]1)[C@H]1CCC[C@@H](NCc2cccc(OC)c2)C1` [Compound 477] and `CCN(C(=O)c1nc2c(OC)cccc2[nH]1)[C@H]1CCC[C@@H](NCc2ccccc2)C1` [Compound 484] cannot be ordered by pIC50: > 7.00 for the first, > 7.00 for the second.

First: O=C(c1cc2ccccc2[nH]1)N(CC(F)(F)F)[C@H]1CCC[C@H](NCc2ccccc2)C1 [Compound 178]
Second: O=C(c1cc2ccccc2[nH]1)N(CC(F)(F)F)[C@H]1CCC[C@H](NCc2ccncc2)C1 [Compound 176]
The pIC50 of the first is higher: 5.70 to 6.30 for the first, < 5.70 for the second. The first is the more potent here.

`C#CCOc1ccc(CN[C@@H]2CCC[C@H](N(CC)C(=O)c3nc4cc(N=[N+]=[N-])ccc4[nH]3)C2)cc1` [Compound 557, 5-azido-N-ethyl-N-((1S,3R)-3-((4-(prop-2-yn-1-yloxy)benzyl)amino)cyclohexyl)-1H-benzo[d]imidazole-2-carboxamide] and `CCN(C(=O)c1nc2cc(F)ccc2[nH]1)[C@H]1CCC[C@@H](NCc2cccc(C#N)c2)C1` [Compound 528] cannot be ordered by pIC50: > 7.00 for the first, > 7.00 for the second.

Compared with `CCN(C(=O)c1cc2ncccc2[nH]1)[C@H]1CCC[C@@H](Nc2ccccc2)C1` [Compound 501], `CCN(C(=O)c1cc2ncccc2[nH]1)[C@H]1CCC[C@H](NC2(c3ccccc3)CC2)C1` [Compound 420] is higher in pIC50: < 5.70 for the first, 5.70 to 6.30 for the second.

Compared with `CCN(C(=O)c1nc2ccccc2[nH]1)[C@H]1CCC[C@@H](NCc2ccc3oc(C)nc3c2)C1` [Compound 531], `CCN(C(=O)c1nc2ccccc2[nH]1)[C@H]1CCC[C@@H](NCc2ccc3cncn3c2)C1` [Compound 492] is higher in pIC50: 6.30 to 7.00 for the first, > 7.00 for the second. The second is the more potent here.

`CCN(C(=O)c1cc2ncccc2[nH]1)[C@H]1CCC[C@@H](NCc2cnn(C)c2)C1` [Compound 448] and `CCN(C(=O)c1cc2ncccc2[nH]1)[C@H]1CCC[C@@H](NCc2ccc3ocnc3c2)C1` [Compound 443] cannot be ordered by pIC50: > 7.00 for the first, > 7.00 for the second.

`CCN(C(=O)c1nc2cc(C3CC3)ccc2[nH]1)[C@H]1CCC[C@@H](NCc2ccccc2)C1` [Compound 541] and `CCN(C(=O)c1nc2cc(S(C)(=O)=O)ccc2[nH]1)[C@H]1CCC[C@@H](NCc2ccccc2)C1` [Compound 540] cannot be ordered by pIC50: > 7.00 for the first, > 7.00 for the second.

`CCN(C(=O)c1cc2ccccc2[nH]1)[C@H]1CCC[C@@H](NCc2ncccn2)C1` [Compound 136] and `CCN(C(=O)c1cc2ccccc2[nH]1)[C@H]1CCC[C@@H](NCc2ccncc2)C1` [Compound 126] fall in the same range of pIC50: 6.30 to 7.00 for the first, 6.30 to 7.00 for the second.

Going from `CCN(C(=O)c1cc2ccccc2[nH]1)[C@H]1CCC[C@@H](NC(=O)c2ccccc2)C1` [Compound 200, N-((1S,3R)-3-benzamidocyclohexyl)-N-ethyl-1H-indole-2-carboxamide] to `[2H]C([2H])(N[C@@H]1CCC[C@H](N(CC)C(=O)c2cc3ccccc3[nH]2)C1)c1ccccc1` [Compound 521, N-ethyl-N-((1S,3R)-3-((phenylmethyl-d2)amino)cyclohexyl)-1H-indole-2-carboxamide], the pIC50 rises from < 5.70 to > 7.00. The second is the more potent here.

`CCN(C(=O)c1nc2cc(C#N)ccc2[nH]1)[C@H]1CCC[C@@H](NCc2oc3ccccc3c2C#N)C1` [Compound 520] and `CCN(C(=O)c1cc2ccccc2[nH]1)[C@H]1CCC[C@@H](NCc2oc3ccccc3c2C)C1` [Compound 449] cannot be ordered by pIC50: > 7.00 for the first, > 7.00 for the second.

First: CCN(C(=O)c1cc2ccccc2[nH]1)[C@H]1CCC[C@@H](NCc2cc(C(C)C)no2)C1 [Compound 471]
Second: CCN(C(=O)c1cc2ccccc2[nH]1)[C@H]1CCC[C@@H](NCc2ccnc(O)c2)C1 [Compound 452]
The pIC50 of the first is higher: > 7.00 for the first, < 5.70 for the second. The first is the more potent here.

Compared with `CCN(C(=O)c1cc2ncccc2[nH]1)[C@H]1CCC[C@@H](N[C@H](c2ccccc2)C(F)(F)F)C1` (single isomer, unassigned) [Compound 416], `CCN(C(=O)c1cc2ncccc2[nH]1)[C@H]1CCC[C@@H](NC(C)(C)c2ccc(F)cc2)C1` [Compound 410] is higher in pIC50: 5.70 to 6.30 for the first, > 7.00 for the second. The second is the more potent here.

First: CCN(C(=O)c1cc2ccccc2[nH]1)[C@H]1CCC[C@@H](NCc2conc2C2CC2)C1 [Compound 456]
Second: CCN(C(=O)c1cc2ccccc2[nH]1)[C@H]1CCC[C@@H](NCc2cncnc2)C1 [Compound 130]
The pIC50 of the first is higher: > 7.00 for the first, 5.70 to 6.30 for the second.

First: CCN(C(=O)c1cc2ccccc2[nH]1)[C@H]1CCC[C@@H](NCc2cccc(S(C)(=O)=O)c2)C1 [Compound 431]
Second: CCN(C(=O)c1cc2ccccc2[nH]1)[C@H]1CCC[C@@H](NCc2ccc(S(C)(=O)=O)cc2)C1 [Compound 432]
The pIC50 of the first is higher: > 7.00 for the first, 6.30 to 7.00 for the second.

First: CCN(C(=O)c1cc2ccccc2[nH]1)[C@H]1CCC[C@@H](N[C@@H]2CCc3ccccc32)C1 [Compound 121]
Second: C#CCCC1(CCOc2ccc(CN[C@@H]3CCC[C@H](N(CC)C(=O)c4cc5ccccc5[nH]4)C3)cc2)N=N1 [Compound 425, N-((1S,3R)-3-((4-(2-(3-(but-3-yn-1-yl)-3H-diazirin-3-yl)ethoxy)benzyl)amino)cyclohexyl)-N-ethyl-1H-indole-2-carboxamide]
The pIC50 of the first is lower: < 5.70 for the first, 6.30 to 7.00 for the second.

Going from `O=C(c1cc2ccccc2[nH]1)N(CC(F)(F)F)[C@H]1COC[C@H](NCc2ccccc2)C1` [Compound 303] to `CCN(C(=O)c1cc2cc(C#N)ccc2[nH]1)[C@H]1CCC[C@@H](NCc2ccc(F)cc2)C1` [Compound 532, 5-cyano-N-ethyl-N-((1S,3R)-3-((4-fluorobenzyl)amino)cyclohexyl)-1H-indole-2-carboxamide], the pIC50 rises from < 5.70 to > 7.00. The second is the more potent here.

`CCN(C(=O)c1cc2ncccc2[nH]1)[C@H]1CCC[C@@H](NC(C)(C)c2ccc(OC)cc2)C1` [Compound 408] and `CCN(C(=O)c1cc2ncccc2[nH]1)[C@H]1CCC[C@@H](NCc2ccc3nsnc3c2)C1` [Compound 442] cannot be ordered by pIC50: > 7.00 for the first, > 7.00 for the second.
